Molecular target: T1, ABHD12 (Mus musculus, UniProt Q99LR1)
T1 construct: from tissue; host or cells: mouse brain (membrane fraction)
T1 sequence (Q99LR1 1-398): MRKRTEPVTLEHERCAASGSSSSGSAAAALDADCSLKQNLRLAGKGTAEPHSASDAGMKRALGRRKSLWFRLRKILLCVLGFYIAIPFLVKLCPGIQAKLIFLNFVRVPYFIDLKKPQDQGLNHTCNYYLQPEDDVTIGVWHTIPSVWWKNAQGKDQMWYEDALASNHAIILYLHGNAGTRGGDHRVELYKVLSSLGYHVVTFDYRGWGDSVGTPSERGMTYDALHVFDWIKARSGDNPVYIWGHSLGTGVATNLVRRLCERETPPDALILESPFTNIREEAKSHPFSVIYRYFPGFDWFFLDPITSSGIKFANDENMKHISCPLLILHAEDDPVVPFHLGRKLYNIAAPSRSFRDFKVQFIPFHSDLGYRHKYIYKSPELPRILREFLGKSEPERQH
Test: In vitro competitive activity-based protein profiling (FP-Rhodamine probe, gel-based) in mouse brain membrane proteomes
Format: biochemical
Conditions: mouse brain membrane proteome, 30 min preincubation at 37° C.; for inhibition at 1 µM: 1 μM inhibitor; for inhibition at 10 µM: 10 μM inhibitor (stated in cell); for inhibition at 50 µM: 50 μM inhibitor (stated in cell)
Experimental: Compounds were tested to assess their ABHD12 activity using the following assay.
Mouse brain membrane proteomes (50 μL, 1.0 mg/mL total protein concentration) were preincubated with varying concentrations of inhibitors at 37° C. After 30 min, FP-Rhodamine probe (1.0 μL, 50 μM in DMSO) was added and the mixture was incubated for 30 min at room temperature. Reactions were quenched with SDS loading buffer (15 μL-4×) and proteins were resolved by SDS-PAGE gel (10% acrylamide). Following in-gel fluorescence imaging, enzyme activity was determined by measuring intensity of gel bands corresponding to ABHD12 using ImageJ software.

SMILES | inhibition at 1 µM [%] | IC50 [nM] | further results
Cc1cc(OC(F)(F)F)ccc1Oc1ccnc(N2CCC(NC(=O)Nc3cccnc3)CC2)c1Cl [Example 16, 1-(1-(3-Chloro-4-(2-methyl-4-(trifluoro-methoxy)phenoxy)pyridin-2-yl)piperidin-4-yl)-3-(pyridin-3-yl)urea] | ≥ 75 | 100 to 1000 | –
O=C(Nc1cccnc1)NC1CCN(c2cccc(C(F)(F)F)n2)CC1 [Example 1, 1-(Pyridin-3-yl)-3-(1-(6-(trifluoromethyl)pyridin-2-yl)piperidin-4-yl)urea] | – | – | inhibition at 10 µM: 50 to 75%
C#Cc1ccc(N2CCC(NC(=O)Nc3cccnc3)CC2)nc1 [Example 25, 1-(1-(5-Ethynyl-pyridin-2-yl)piperidin-4-yl)-3-(pyridin-3-yl)urea] | 0 to 25 | – | –
O=C(Nc1cccnc1)NC1CCN(c2nccc(-c3ccc(OC(F)(F)F)cc3)c2Cl)CC1 [Example 27, 1-(1-(3-Chloro-4-(4-(trifluoro-methoxy)phenyl)pyridin-2-yl)piperidin-4-yl)-3-(pyridin-3-yl)urea] | ≥ 75 | 100 to 1000 | –
O=C(Nc1cccnc1)NC1CCN(c2nccc(Oc3ccc(F)c(OC(F)(F)F)c3)c2Cl)CC1 [Example 5, 1-(1-(3-Chloro-4-(4-fluoro-3-(trifluoromethoxy)phenoxy)pyridin-2-yl)piperidin-4-yl)-3-(pyridin-3-yl)urea] | 25 to 50 | – | –
O=C(Nc1cccnc1)NC1CCN(c2ccc(Cl)cn2)CC1 [Example 11, 1-(1-(5-Chloropyridin-2-yl)piperidin-4-yl)-3-(pyridin-3-yl) urea] | – | – | inhibition at 50 µM: ≥ 75%
O=C(Nc1cccnc1)NC1CCN(c2cc(-c3ccc(OC(F)(F)F)cc3)ccn2)CC1 [Example 4, 1-(Pyridin-3-yl)-3-(1-(4-(4-(trifluoromethoxy)phenyl)pyridin-2-yl)piperidin-4-yl)urea] | 25 to 50 | – | –
O=C(Nc1cccnc1)NC1CCN(c2nccc(C(F)(F)F)c2Cl)CC1 [Example 8, 1-(1-(3-Chloro-4-(trifluoro-methyl)pyridin-2-yl)piperidin-4-yl)-3-(pyridin-3-yl)urea] | – | – | inhibition at 10 µM: 50 to 75%
CC(=O)c1ccc(N2CCC(NC(=O)Nc3cccnc3)CC2)nc1 [Example 3, 1-(1-(5-Acetylpyridin-2-yl)piperidin-4-yl)-3-(pyridin-3-yl)urea] | 0 to 25 | – | –
O=C(Nc1cccnc1)NC1CCN(c2nccc(OCc3cccc(OC(F)(F)F)c3)c2Cl)CC1 [Example 29, 1-(1-(3-Chloro-4-((3-(trifluoro-methoxy)benzyl)oxy)pyridin-2-yl)piperidin-4-yl)-3-(pyridin-3-yl)urea] | 25 to 50 | – | –
CC(C)OC(=O)N1CCC(Oc2ccnc(N3CCC(NC(=O)Nc4cccnc4)CC3)c2)CC1 [Example 22, Isopropyl 4-((2-(4-(3-(pyridin-3-yl)ureido)piperidin-1-yl)pyridin-4-yl)oxy) piperidine-1-carboxylate] | – | – | inhibition at 50 µM: 25 to 50%
O=C(Nc1cccnc1)NC1CCN(c2nccc(Oc3cccc(OC(F)(F)F)c3)c2Cl)CC1 [Example 17, 1-(1-(3-Chloro-4-(3-(trifluoro-methoxy)phenoxy)pyridin-2-yl)piperidin-4-yl)-3-(pyridin-3-yl)urea] | 50 to 75 | – | –
N#Cc1ccnc(N2CCC(NC(=O)Nc3cccnc3)CC2)c1 [Example 12, 1-(1-(4-Cyanopyridin-2-yl)piperidin-4-yl)-3-(pyridin-3-yl) urea] | – | – | inhibition at 50 µM: 25 to 50%
C#Cc1ccc(Oc2ccnc(N3CCC(NC(=O)Nc4cccnc4)CC3)c2Cl)c(Cl)c1 [Example 6, 1-(1-(3-Chloro-4-(2-chloro-4-ethynylphenoxy)pyridin-2-yl)piperidin-4-yl)-3-(pyridin-3-yl)urea] | ≥ 75 | 100 to 1000 | –
O=C(Nc1cccnc1)NC1CCN(c2nccc(OCc3ccc(OC(F)(F)F)cc3)c2Cl)CC1 [Example 28, 1-(1-(3-Chloro-4-((4-(trifluoro-methoxy)benzyl)oxy)pyridin-2-yl)piperidin-4-yl)-3-(pyridin-3-yl)urea] | 25 to 50 | – | –
O=C(Nc1cccnc1)NC1CCN(c2cc(OCC3CC3)ccn2)CC1 [Example 19] | – | – | inhibition at 50 µM: 50 to 75%
O=C(Nc1cccnc1)NC1CCN(c2nc(Oc3ccc(OC(F)(F)F)cc3Cl)ccc2Cl)CC1 [Example 24, 1-(1-(3-Chloro-6-(2-chloro-4-(trifluoro-methoxy)phenoxy)pyridin-2-yl)piperidin-4-yl)-3-(pyridin-3-yl)urea] | 25 to 50 | – | –
COc1ccnc(N2CCC(NC(=O)Nc3cccnc3)CC2)c1 [Example 18] | 0 to 25 | – | –
O=C(Nc1cccnc1)NC1CCN(c2nccc(Oc3ccc(OC(F)(F)F)c(F)c3)c2Cl)CC1 [Example 14, 1-(1-(3-Chloro-4-(3-fluoro-4-(trifluoro-methoxy)phenoxy)pyridin-2-yl)piperidin-4-yl)-3-(pyridin-3-yl)urea] | ≥ 75 | 100 to 1000 | –
O=C(Nc1cccnc1)NC1CCN(c2nccc(Oc3ccccc3OC(F)(F)F)c2Cl)CC1 [Example 13, 1-(1-(3-Chloro-4-(2-(trifluoro-methoxy)phenoxy)pyridin-2-yl)piperidin-4-yl)-3-(pyridin-3-yl)urea] | 25 to 50 | – | –
O=C(Nc1cccnc1)NC1CCN(c2nccc(OC3CCOCC3)c2Cl)CC1 [Example 21, 1-(1-(3-Chloro-4-((tetrahydro-2H-pyran-4-yl)oxy)pyridin-2-yl)piperidin-4-yl)-3-(pyridin-3-yl)urea] | 0 to 25 | – | –
O=C(Nc1cccnc1)NC1CCN(c2nccc(-c3cccc(OC(F)(F)F)c3)c2Cl)CC1 [Example 26, 1-(1-(3-Chloro-4-(3-(trifluoro-methoxy)phenyl)pyridin-2-yl)piperidin-4-yl)-3-(pyridin-3-yl)urea] | ≥ 75 | 100 to 1000 | –
O=C(Nc1cccnc1)NC1CCN(c2nccc(Oc3ccc(OC(F)(F)F)cc3)c2Cl)CC1 [Example 10, 1-(1-(3-Chloro-4-(4-(trifluoro-methoxy)phenoxy)pyridin-2-yl)pipcridin-4-yl)-3-(pyridin-3-yl) urea] | ≥ 75 | ≤ 100 | –
N#Cc1c(Oc2ccc(C(F)(F)F)cc2)ccnc1N1CCC(NC(=O)Nc2cccnc2)CC1 [Example 20, 1-(1-(3-Cyano-4-(4-(trifluoro-methyl)phenoxy)pyridin-2-yl)piperidin-4-yl)-3-(pyridin-3-yl) urea] | 50 to 75 | – | –
O=C(Nc1cccnc1)NC1CCN(c2nccc(Oc3ccc(OC(F)(F)F)c(Cl)c3)c2Cl)CC1 [Example 15, 1-(1-(3-Chloro-4-(3-chloro-4-(trifluoro-methoxy)phenoxy)pyridin-2-yl)piperidin-4-yl)-3-(pyridin-3-yl)urea] | ≥ 75 | 100 to 1000 | –
Cc1c(Oc2ccc(OC(F)(F)F)cc2)ccnc1N1CCC(NC(=O)Nc2cccnc2)CC1 [Example 9, 1-(1-(3-Methyl-4-(4-(trifluoro-methoxy)phenoxy)pyridin-2-yl)piperidin-4-yl)-3-(pyridin-3-yl) urea] | ≥ 75 | 100 to 1000 | –
O=C(Nc1cccnc1)NC1CCN(c2nccc(Oc3ccc(Cl)c(OC(F)(F)F)c3)c2Cl)CC1 [Example 2, 1-(1-(3-Chloro-4-(4-chloro-3-(trifluoromethoxy)phenoxy)pyridin-2-yl)piperidin-4-yl)-3-(pyridin-3-yl)urea] | ≥ 75 | 100 to 1000 | –
O=C(Nc1cccnc1)NC1CCN(c2ncccc2Oc2ccc(OC(F)(F)F)cc2Cl)CC1 [Example 23, 1-(1-(3-(2-Chloro-4-(trifluoro-methoxy)phenoxy)pyridin-2-yl)piperidin-4-yl)-3-(pyridin-3-yl) urea] | ≥ 75 | 100 to 1000 | –
O=C(Nc1cccnc1)NC1CCN(c2cc(Oc3ccc(C(F)(F)F)cc3)ccn2)CC1 [Example 7, 1-(Pyridin-3-yl)-3-(1-(4-(4-(trifluoromethyl)phenoxy)pyridin-2-yl)piperidin-4-yl)urea] | 25 to 50 | – | –

— US20220213074A1, “ABHD12 INHIBITORS AND METHODS OF MAKING AND USING SAME” (H. Lundbeck A/S, priority 2019, published 2022)
